Columns and labels:
MC-38 cells = test: Migration assay, intracellular LGG; type: cell-based, C57BL/6 murine
Protocol: Cells. C57BL/6 murine colon adenocarcinoma MC-38 cells (gender unknown; Kerafast, Inc., Boston, Massachusetts, United States of America) or human epithelial colorectal adenocarcinoma Caco-2 cells (American Type Culture Collection, ATCC®, Manassas, Virginia, United States of America) were grown in tissue culture plates with Dulbecco's modified Eagle's medium (DMEM) supplemented with 10% heat-inactivated fetal bovine serum (FBS), 100 U/mL penicillin, and 100 μg/mL streptomycin at 37° C. in a 5% CO2 atmosphere.
Migration Assays. MC-38 or Caco-2 cells (ATCC) were seeded at 1×10^5 cells per well in a 12-well tissue culture plate with Dulbecco's modified Eagle's medium (DMEM) without antibiotics. The cells were inoculated with 1×10^7 bacteria per well for 90 minutes at 37° C. in a 5% CO2 atmosphere to allow bacterial adhesion and entry. The number of intracellular bacteria was quantified as described in Zhang & Wang, 1998.

SpaC = test: Immunogold labeling of LGG pili and TEM; type: cell-based, Lactobacillus rhamnosus; settings: compared with PBS or scrambled miRNA
Protocol: Immunogold Labeling of LGG Pili and TEM. To visualize LGG pili via transmission electron microscopy (TEM), LGG cultures were grown overnight (OD600<1.0) and washed once with PBS. Formvar-carbon-coated copper grids (Electron Microscopy Sciences, Hatfield, Pennsylvania, United States of America) first were floated for 1 hour on droplets of the diluted LGG at 10^7/mL in PBS, washed several times with 0.02 M glycine in PBS, and then treated with a blocking solution of 1% bovine serum albumin (BSA) in PBS. The grids were then floated for 1 hour on droplets of anti-SpaC serum (1:100) in blocking solution. After a wash with 0.1% BSA in PBS, the grids were incubated for 20 minutes with protein A-conjugated 10-nm-diameter gold particles (Cytodiagnostics, Burlington, Ontario, Canada) diluted 1:55 in blocking solution. After one wash in PBS, the grids were fixed with 1% glutaraldehyde, washed with distilled water, and then stained with 1% ammonium molybdate on the surface of the EM grid. After excess ammonium molybdate was removed from the grid, images were visualized using a Thermo-Fisher TEM Tecnai Spirit at 80 kV, and images were collected with an AMT XR60 digital camera.

[1] = tested on: SpaC fragment with ath-miR167a binding site; test: SpaC-pGFPuv GFP reporter in E. coli (FACS); type: cell-based
Protocol: Plasmid Construction and Mutagenesis. The SpaC fragment (339-800, LGG RS02140) spanning the sequences of the potential target (710-717) of GELN ath-miR167a was obtained by PCR with cDNA from LGG RNA. PCR was performed using a Bio-Rad thermal cycler T100. The 462-bp PCR product amplified by the primer pair SpaC-pGFPuv-F: 5′-[…]-3′ (SEQ ID NO: 1) and SpaC-pGFPuv-R: 5′-[…]-3′ (SEQ ID NO: 2) was ligated into the Sphl and Xbal restriction enzyme sites of a pGFPuv vector (Takara Bio/Clontech, Mountain View, California, United States of America) to obtain a green fluorescent protein (GFP) expression reporter. SpaC-pGFPuv fused with the SpaC gene fragment, which can be expressed in prokaryotic cells. To generate mutants of SpaC, the oligonucleotide primers SpaCMut-F, 5′-[…] […]
Flow Cytometry. […] Data were acquired using a BD FACSCalibur flow cytometer (BD Biosciences, San Jose, California, United States of America) and analyzed using FlowJo software (Tree Star Inc., Ashland, Oregon, United States of America). To visualize bacteria stained with PKH26/67 and transformed with SpaC-pGFPuv plasmid, the PKH26/67-positive and GFP-positive bacteria were detected by flow cytometry using a BD FACSCalibur flow cytometer (BD Biosciences, San Jose, California, United States of America), and data were analyzed using FlowJo software (Tree Star Inc., Ashland, Oregon, United States of America).

Substance: ath-miR167a: GELN miRNA, SEQ ID NO: 9 (UGAAGCUGCCAGCAUGAUCUA; expressed or natural sequence)
- LGG entry into MC38 cells (MC-38 cells): could prevent the entry of LGG into gut epithelial cells
- SpaC protein on pili of LGG (TEM) (SpaC): much less SpaC protein could be detected on pili
- GFP expression with mutation that disrupted the binding site [1]: entirely restored GFP expression
